Results: patent US7514419B2, “Phosphorus-containing thyromimetics” (Metabasis Therapeutics, Inc., priority 2003, dated 2009)

Experiments:
[1] = system: normal rats maintained on a cholesterol-containing diet; test: Continuous infusion study in rats on a cholesterol-containing diet; conditions: continuous infusion 1 mg/kg/day; for cardiovascular parameters (heart rate, LV dP/dt, blood pressure): day 7 or day 14
Protocol: Screening for thyromimetic activity was performed in normal rats maintained on a cholesterol-containing diet.

[2] = system: Hypercholesterolemic rats; test: Cholesterol lowering in hypercholesterolemic rats; type: in vivo, rat; conditions: for change in vivo at 0.5 mg/kg/day / change in vivo at 0.2 mg/kg/day: Rattus norvegicus, percentage change from pre-dose cholesterol; for change in vivo at 0.5 mg/kg/day: delivered p.o. (0.5 mg/kg/d); for cholesterol lowering: 0.5 mg/kg/d orally
cholesterol-fed rat = test: Subacute study in cholesterol-fed rats, IP once-a-day for seven days: serum cholesterol, heart weight, heart mGPDH; conditions: cholesterol-fed rats, IP 7 days; Compound 17 at 0.1-1 mg/kg/day
Protocol: The cholesterol-fed rat is an animal model of hypercholesterolemia generated by feeding the animals a diet with high cholesterol content.
Methods: Rats were maintained on a diet containing 1.5% cholesterol and 0.5% cholic acid for 2 weeks prior to initiation of treatment. Serum cholesterol values were assessed and the animals randomized into groups for treatment.

| Compound | total cholesterol at day 7 [1] | total cholesterol at day 14 [1] | cardiovascular parameters (heart rate, LV dP/dt, blood pressure) [1] | change in vivo at 0.5 mg/kg/day ([2]; po) | also measured |
| --- | --- | --- | --- | --- | --- |
| COP(=O)(O)COc1cc(C)c(Cc2ccc(O)c(C(C)C)c2)c(C)c1 [Compound 69, [3,5-dimethyl-4-(4′-hydroxy-3′-iso-propylbenzyl)phenoxy]-methylphosphonic acid monomethyl ester] | cholesterol lowering effects | cholesterol lowering effects | no changes in any of the cardiovascular parameters | – | – |
| CC(C)c1cc(Oc2c(I)cc(OCP(=O)(OCOC(=O)C(C)(C)C)OCOC(=O)C(C)(C)C)cc2I)ccc1O [Compound 12-7, Di(pivaloyloxymethyl)[3,5-diiodo-4-(4′-hydroxy-3′-iso-propylphenoxy)phenoxy]methylphosphonate] | – | – | – | -39.1% | – |
| CC(C)c1cc(Cc2c(Cl)cc(OC[P@@]3(=O)OCC[C@@H](c4cccc(Cl)c4)O3)cc2Cl)ccc1O [Compound 13-11, Cis (S)-2-[(3,5-dichloro-4-(4′-hydroxy-3′-iso-propylbenzyl)phenoxy)methyl]-4-(3-chlorophenyl)-2-oxo-2λ^5-[1,3,2]-dioxaphosphonane] | – | – | – | -24.8% | – |
| CCOP(=O)(O)COc1cc(C)c(Cc2ccc(O)c(C(C)C)c2)c(C)c1 [Compound 69-1, [3,5-dimethyl-4-(4′-hydroxy-3′-iso-propylbenzyl)phenoxy]methylphosphonic acid monoethyl ester] | cholesterol lowering effects | cholesterol lowering effects | no changes in any of the cardiovascular parameters | – | – |
| CC(C)c1cc(Cc2c(Cl)cc(OCP(=O)(O)O)cc2Cl)ccc1O [Compound 7-5, [3,5-dichloro-4-(4′-hydroxy-3′-iso-propylbenzyl)phenoxy] methylphosphonic acid] | – | – | – | – | change in vivo at 0.2 mg/kg/day ([2]; ip, delivered i.p (0.2 mg/kg/d)): -63.3%; change in vivo at 0.2 mg/kg/day ([2]; po, delivered p.o. (0.2 mg/kg/d)): -38% |
| CCOC(=O)[C@H](C)NP(=O)(Cc1cc(Br)c(Oc2ccc(O)c(C(C)C)c2)c(Br)c1)N[C@@H](C)C(=O)OCC [Compound 15-5, di-N-(L-1-ethoxycarbonylethylamino)[3,5-dibromo-4-(4′-hydroxy-3′-iso-propylphenoxy)benzyl]phosphonamide] | – | – | – | – | cholesterol lowering [2]: significant lowering of cholesterol |
| CC(C)c1cc(Oc2c(Br)cc(CP(=O)(OCOC(=O)C(C)(C)C)OCOC(=O)C(C)(C)C)cc2Br)ccc1O [Compound 12-5, Di-(pivaloyloxymethyl)[3,5-dibromo-4-(4′-hydroxy-3′-iso-propylphenoxy)benzyl] phosphonate] | – | – | – | – | cholesterol lowering [2]: significant lowering of cholesterol |
| Cc1cc(OCP(C)(=O)O)cc(C)c1Cc1ccc(O)c(C(C)C)c1 [Compound 70, [3,5-dimethyl-4-(4′-hydroxy-3′-iso-propylbenzyl)-phenoxymethyl]methylphosphinic acid] | cholesterol lowering effects | cholesterol lowering effects | no changes in any of the cardiovascular parameters | – | – |
| Cc1cc(OCC(=O)O)cc(C)c1Cc1ccc(O)c(C(C)C)c1 [Compound 17, [3,5-dimethyl-4-(4′-hydroxy-3′-iso-propylbenzyl)-phenoxy]acetic acid, reference compound] | significant decrease in cholesterol | no significant decrease in cholesterol was observed | – | – | cardiac hypertrophy (cholesterol-fed rat): Undesirable cardiac hypertrophy was observed |
| CCOC(=O)[C@H](C)NP(=O)(COc1cc(Cl)c(Cc2ccc(O)c(C(C)C)c2)c(Cl)c1)N[C@@H](C)C(=O)OCC [Compound 15-7] | – | – | – | -29.1% | – |
